In the NIST ThermoML archive (doi:10.1021/acs.jced.7b00694):

Test: xn = mol fraction of the nth substance listed
Settings: Gas, Buoyancy - hydrostatic balance with magnetic suspension - one sinker

[HH] [hydrogen] + N#N
Settings | mass density [kg/m3]
250.04 K, 11001 kPa, x2 = 0.9 | 137.2
250.04 K, 11002 kPa, x2 = 0.5001 | 76.353
250.04 K, 12001 kPa, x2 = 0.5001 | 82.831
250.04 K, 12002 kPa, x2 = 0.9 | 149.273
250.04 K, 13003 kPa, x2 = 0.5001 | 89.231
250.04 K, 13005 kPa, x2 = 0.9 | 161.179
250.04 K, 14001 kPa, x2 = 0.5001 | 95.51
250.04 K, 15005 kPa, x2 = 0.5001 | 101.724
250.04 K, 15008 kPa, x2 = 0.9 | 184.307
250.04 K, 16003 kPa, x2 = 0.5001 | 107.801
250.04 K, 17004 kPa, x2 = 0.5001 | 113.79
250.04 K, 17014 kPa, x2 = 0.9 | 206.478
250.04 K, 18007 kPa, x2 = 0.5001 | 119.684
250.04 K, 18011 kPa, x2 = 0.9 | 217.113
250.04 K, 19005 kPa, x2 = 0.5001 | 125.441
250.04 K, 19653 kPa, x2 = 0.9 | 234.021
250.04 K, 19934 kPa, x2 = 0.5001 | 130.7
250.05 K, 14008 kPa, x2 = 0.9 | 172.872
250.05 K, 16004 kPa, x2 = 0.9 | 195.446
250.05 K, 19014 kPa, x2 = 0.9 | 227.523
260.02 K, 999 kPa, x2 = 0.95 | 12.396
260.02 K, 1998 kPa, x2 = 0.95 | 24.915
260.02 K, 2987 kPa, x2 = 0.95 | 37.39
260.02 K, 3998 kPa, x2 = 0.95 | 50.206
260.02 K, 4998 kPa, x2 = 0.95 | 62.921
260.02 K, 5998 kPa, x2 = 0.95 | 75.652
260.02 K, 6997 kPa, x2 = 0.95 | 88.348
260.02 K, 8004 kPa, x2 = 0.95 | 101.083
260.02 K, 8999 kPa, x2 = 0.95 | 113.598
260.02 K, 10003 kPa, x2 = 0.95 | 126.121
260.02 K, 11004 kPa, x2 = 0.95 | 138.476
260.02 K, 12004 kPa, x2 = 0.95 | 150.65
260.02 K, 13007 kPa, x2 = 0.95 | 162.68
260.02 K, 13989 kPa, x2 = 0.95 | 174.256
260.02 K, 15009 kPa, x2 = 0.95 | 186.058
260.02 K, 16012 kPa, x2 = 0.95 | 197.415
260.02 K, 17003 kPa, x2 = 0.95 | 208.387
260.02 K, 18018 kPa, x2 = 0.95 | 219.361
260.02 K, 19020 kPa, x2 = 0.95 | 229.93
260.02 K, 19954 kPa, x2 = 0.95 | 239.529
260.03 K, 998 kPa, x2 = 0.9 | 11.773
260.03 K, 2000 kPa, x2 = 0.9 | 23.676
260.04 K, 2987 kPa, x2 = 0.9 | 35.462
260.04 K, 3998 kPa, x2 = 0.9 | 47.566
260.04 K, 4998 kPa, x2 = 0.9 | 59.561
260.04 K, 5998 kPa, x2 = 0.9 | 71.547
260.04 K, 6999 kPa, x2 = 0.9 | 83.502
260.04 K, 7999 kPa, x2 = 0.9 | 95.394
260.04 K, 9000 kPa, x2 = 0.9 | 107.209
260.04 K, 10001 kPa, x2 = 0.9 | 118.929
260.04 K, 11002 kPa, x2 = 0.9 | 130.507
260.04 K, 12001 kPa, x2 = 0.9 | 141.918
260.04 K, 13005 kPa, x2 = 0.9 | 153.211
260.04 K, 14004 kPa, x2 = 0.9 | 164.255
260.04 K, 15004 kPa, x2 = 0.9 | 175.116
260.04 K, 16007 kPa, x2 = 0.9 | 185.789
260.04 K, 17014 kPa, x2 = 0.9 | 196.279
260.04 K, 18009 kPa, x2 = 0.9 | 206.415
260.04 K, 19010 kPa, x2 = 0.9 | 216.361
260.04 K, 19736 kPa, x2 = 0.9 | 223.429
274.98 K, 997 kPa, x2 = 0.9 | 11.103
274.98 K, 1997 kPa, x2 = 0.9 | 22.285
274.99 K, 997 kPa, x2 = 0.95 | 11.688
274.99 K, 998 kPa, x2 = 0.5001 | 6.537
274.99 K, 1998 kPa, x2 = 0.5001 | 13.041
274.99 K, 1998 kPa, x2 = 0.95 | 23.478
274.99 K, 2986 kPa, x2 = 0.95 | 35.164
274.99 K, 2997 kPa, x2 = 0.9 | 33.49
274.99 K, 2998 kPa, x2 = 0.5001 | 19.501
274.99 K, 3997 kPa, x2 = 0.5001 | 25.901
274.99 K, 3997 kPa, x2 = 0.9 | 44.699
274.99 K, 3997 kPa, x2 = 0.95 | 47.147
274.99 K, 4997 kPa, x2 = 0.5001 | 32.248
274.99 K, 4997 kPa, x2 = 0.95 | 58.999
274.99 K, 4998 kPa, x2 = 0.9 | 55.901
274.99 K, 5997 kPa, x2 = 0.5001 | 38.535
274.99 K, 5998 kPa, x2 = 0.9 | 67.065
274.99 K, 5998 kPa, x2 = 0.95 | 70.84
274.99 K, 6997 kPa, x2 = 0.5001 | 44.758
274.99 K, 6998 kPa, x2 = 0.9 | 78.183
274.99 K, 6998 kPa, x2 = 0.95 | 82.636
274.99 K, 7997 kPa, x2 = 0.5001 | 50.911
274.99 K, 7998 kPa, x2 = 0.9 | 89.232
274.99 K, 8000 kPa, x2 = 0.95 | 94.385
274.99 K, 8998 kPa, x2 = 0.5001 | 57.003
274.99 K, 9000 kPa, x2 = 0.9 | 100.212
274.99 K, 9000 kPa, x2 = 0.95 | 106.023
274.99 K, 9998 kPa, x2 = 0.5001 | 63.009
274.99 K, 9998 kPa, x2 = 0.9 | 111.047
274.99 K, 10001 kPa, x2 = 0.95 | 117.586
274.99 K, 10998 kPa, x2 = 0.5001 | 68.948
274.99 K, 11001 kPa, x2 = 0.9 | 121.821
274.99 K, 11002 kPa, x2 = 0.95 | 129.012
274.99 K, 11996 kPa, x2 = 0.5001 | 74.789
274.99 K, 12001 kPa, x2 = 0.9 | 132.405
274.99 K, 12003 kPa, x2 = 0.95 | 140.289
274.99 K, 13000 kPa, x2 = 0.5001 | 80.586
274.99 K, 13002 kPa, x2 = 0.9 | 142.866
274.99 K, 13002 kPa, x2 = 0.95 | 151.394
274.99 K, 13998 kPa, x2 = 0.5001 | 86.267
